# According to ChEMBL document CHEMBL1201862, “PubChem BioAssay data set” (2004):
# Active and inactive are the calls of the source.
# Tests used:
# [1] = molecular target: Eukaryotic translation initiation factor 4E (Mus musculus, UniProt P63073); assay: blockers of eIF4G binding by eIF4E – biochemical, TR-FRET, dose response (AID 855); format: functional;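 also: potency for disrupting eIF4E binding to eIF4GI seen as loss of FRET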
# [2] = molecular target: T1, Short transient receptor potential channel 4 (Mus musculus, UniProt Q9QUQ5); assay: block of DAMGO-driven TRPC4 calcium entry – cell-based, HEK293 TRPC4/mu-opioid, Fluo-4 calcium, dose response (AID 434942); format: functional;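 also: potency of inhibitors blocking the TRPC4 calcium response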
# T1 sequence (Q9QUQ5 whole entry): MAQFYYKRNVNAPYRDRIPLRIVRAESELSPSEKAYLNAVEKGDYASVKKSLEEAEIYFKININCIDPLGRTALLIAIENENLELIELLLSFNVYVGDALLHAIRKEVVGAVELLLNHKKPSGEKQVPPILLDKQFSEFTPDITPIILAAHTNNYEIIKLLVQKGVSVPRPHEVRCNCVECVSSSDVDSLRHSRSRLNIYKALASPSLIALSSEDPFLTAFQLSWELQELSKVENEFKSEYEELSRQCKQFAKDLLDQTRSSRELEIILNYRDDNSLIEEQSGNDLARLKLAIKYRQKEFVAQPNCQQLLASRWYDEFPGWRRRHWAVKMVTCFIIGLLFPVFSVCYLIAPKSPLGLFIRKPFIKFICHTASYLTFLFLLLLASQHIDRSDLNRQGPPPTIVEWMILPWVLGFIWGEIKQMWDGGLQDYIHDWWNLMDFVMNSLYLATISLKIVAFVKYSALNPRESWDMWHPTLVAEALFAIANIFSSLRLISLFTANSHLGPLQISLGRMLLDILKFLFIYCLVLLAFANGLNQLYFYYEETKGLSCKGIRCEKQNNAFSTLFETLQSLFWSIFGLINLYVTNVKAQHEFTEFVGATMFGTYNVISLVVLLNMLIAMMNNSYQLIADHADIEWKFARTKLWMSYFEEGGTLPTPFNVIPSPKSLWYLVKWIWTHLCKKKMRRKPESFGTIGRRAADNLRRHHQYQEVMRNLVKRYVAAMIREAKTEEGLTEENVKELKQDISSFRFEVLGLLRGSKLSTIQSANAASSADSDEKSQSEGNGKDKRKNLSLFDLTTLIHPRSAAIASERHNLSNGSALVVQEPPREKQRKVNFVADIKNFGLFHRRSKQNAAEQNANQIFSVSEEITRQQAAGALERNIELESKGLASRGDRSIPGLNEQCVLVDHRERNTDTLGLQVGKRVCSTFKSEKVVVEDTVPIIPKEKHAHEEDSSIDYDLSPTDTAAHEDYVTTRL
# [3] = molecular target: T2, Carboxy-terminal domain RNA polymerase II polypeptide A small phosphatase 1 (Homo sapiens, UniProt Q9GZU7); assay: CTDSP1 inhibitors, concentration-response, biochemical, absorbance readout, ultra-high-throughput screen actives (AID 540297); format: functional
# T2 sequence (Q9GZU7 whole entry): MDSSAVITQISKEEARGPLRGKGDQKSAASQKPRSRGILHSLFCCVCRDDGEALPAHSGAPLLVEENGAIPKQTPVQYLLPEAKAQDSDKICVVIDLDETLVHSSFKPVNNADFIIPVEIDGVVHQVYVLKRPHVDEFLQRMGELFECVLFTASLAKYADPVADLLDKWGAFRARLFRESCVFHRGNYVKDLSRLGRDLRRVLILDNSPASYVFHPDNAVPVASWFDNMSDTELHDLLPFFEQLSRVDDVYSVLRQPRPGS
# [4] = system: HEK293; assay: inhibition of NOD1-driven NF-kB reporter – cell-based, luminescence, uHTS, primary screen (AID 1578); format: functional; details: Homo sapiens
# [5] = system: HEK293; assay: cells; format: functional, cell-based; details: Homo sapiens
# [6] = system: HEK293; assay: cells; format: functional, cell-based; details: Homo sapiens; remark: listed apart in the source
# [7] = molecular target: Nucleotide-binding oligomerization domain-containing protein 2 (Homo sapiens, UniProt Q9HC29); assay: inhibition of NOD2-driven NF-kB reporter – cell-based, luminescence, uHTS, HEK293 (AID 1566); format: functional
# Nucleotide-binding oligomerization domain-containing protein 2, sequence (Q9HC29 whole entry, the tested form may be a part): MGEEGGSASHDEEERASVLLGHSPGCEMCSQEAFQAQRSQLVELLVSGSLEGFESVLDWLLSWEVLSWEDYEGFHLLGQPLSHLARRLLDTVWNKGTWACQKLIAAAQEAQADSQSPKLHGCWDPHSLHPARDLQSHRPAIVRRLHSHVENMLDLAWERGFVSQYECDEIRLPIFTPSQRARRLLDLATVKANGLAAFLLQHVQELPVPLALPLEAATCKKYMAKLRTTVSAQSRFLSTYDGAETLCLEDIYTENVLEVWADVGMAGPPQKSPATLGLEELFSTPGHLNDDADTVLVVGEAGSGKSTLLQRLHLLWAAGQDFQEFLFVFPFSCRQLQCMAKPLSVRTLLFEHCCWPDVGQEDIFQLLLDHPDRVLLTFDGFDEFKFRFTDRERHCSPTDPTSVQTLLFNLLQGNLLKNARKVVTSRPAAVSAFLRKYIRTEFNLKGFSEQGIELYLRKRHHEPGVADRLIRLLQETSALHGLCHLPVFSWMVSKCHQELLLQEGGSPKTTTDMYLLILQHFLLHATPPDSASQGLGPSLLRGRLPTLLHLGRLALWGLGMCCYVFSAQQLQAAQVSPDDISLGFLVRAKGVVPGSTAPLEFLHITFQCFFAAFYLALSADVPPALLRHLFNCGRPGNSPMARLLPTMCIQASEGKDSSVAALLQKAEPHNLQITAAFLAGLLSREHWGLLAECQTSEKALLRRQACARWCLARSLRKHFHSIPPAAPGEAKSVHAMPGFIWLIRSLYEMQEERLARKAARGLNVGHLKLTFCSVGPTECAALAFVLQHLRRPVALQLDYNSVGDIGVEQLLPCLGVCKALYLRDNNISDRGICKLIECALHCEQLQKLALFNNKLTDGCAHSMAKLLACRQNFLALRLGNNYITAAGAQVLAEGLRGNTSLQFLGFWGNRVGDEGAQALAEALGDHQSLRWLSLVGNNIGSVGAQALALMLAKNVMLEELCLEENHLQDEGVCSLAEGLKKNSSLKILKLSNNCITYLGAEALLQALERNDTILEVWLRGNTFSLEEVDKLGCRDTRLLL
# [8] = system: HEK293; assay: NOD2 signaling inhibitors in MDP-stimulated cells, cell-based, uHTS, luminescence (AID 2001); format: functional; details: Homo sapiens
# [9] = system: HEK293; assay: cells; format: functional, cell-based; details: Homo sapiens; remark: listed apart in the source
# [10] = molecular target: Melanocortin receptor 4 (Homo sapiens, UniProt P32245); format: functional, cell-based;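 also: Cell-based assay with luminescence read-out, confirmatory dose-response testing for agonist activity of biased ligands at MC4R; human U2OS cells with tagged receptor and beta-arrestin; potency of agonists that increase receptor coupling to beta-arrestin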
# Melanocortin receptor 4, sequence (P32245 whole entry): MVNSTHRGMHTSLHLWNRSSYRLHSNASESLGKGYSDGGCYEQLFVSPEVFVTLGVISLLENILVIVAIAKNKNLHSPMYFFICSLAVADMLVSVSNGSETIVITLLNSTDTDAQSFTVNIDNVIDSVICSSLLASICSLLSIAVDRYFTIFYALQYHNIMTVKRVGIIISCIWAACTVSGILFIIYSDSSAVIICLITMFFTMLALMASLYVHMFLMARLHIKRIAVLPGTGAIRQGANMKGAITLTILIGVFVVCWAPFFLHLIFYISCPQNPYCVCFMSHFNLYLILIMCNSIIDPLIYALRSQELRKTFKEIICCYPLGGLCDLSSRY
# [11] = viability of uninfected HEp-2 cells – cell-based, HTS, cytotoxicity control for RSV inhibitor project, dose response (AID 2410); format: functional; details: human respiratory syncytial virus
# [12] = molecular target: T3, Voltage-gated N-type calcium channel alpha-1B subunit/Amyloid beta A4 precursor protein-binding family A member 1 (Homo sapiens, UniProt Q00975+Q02410); format: protein assay
# T3 sequence (Q00975 whole entry): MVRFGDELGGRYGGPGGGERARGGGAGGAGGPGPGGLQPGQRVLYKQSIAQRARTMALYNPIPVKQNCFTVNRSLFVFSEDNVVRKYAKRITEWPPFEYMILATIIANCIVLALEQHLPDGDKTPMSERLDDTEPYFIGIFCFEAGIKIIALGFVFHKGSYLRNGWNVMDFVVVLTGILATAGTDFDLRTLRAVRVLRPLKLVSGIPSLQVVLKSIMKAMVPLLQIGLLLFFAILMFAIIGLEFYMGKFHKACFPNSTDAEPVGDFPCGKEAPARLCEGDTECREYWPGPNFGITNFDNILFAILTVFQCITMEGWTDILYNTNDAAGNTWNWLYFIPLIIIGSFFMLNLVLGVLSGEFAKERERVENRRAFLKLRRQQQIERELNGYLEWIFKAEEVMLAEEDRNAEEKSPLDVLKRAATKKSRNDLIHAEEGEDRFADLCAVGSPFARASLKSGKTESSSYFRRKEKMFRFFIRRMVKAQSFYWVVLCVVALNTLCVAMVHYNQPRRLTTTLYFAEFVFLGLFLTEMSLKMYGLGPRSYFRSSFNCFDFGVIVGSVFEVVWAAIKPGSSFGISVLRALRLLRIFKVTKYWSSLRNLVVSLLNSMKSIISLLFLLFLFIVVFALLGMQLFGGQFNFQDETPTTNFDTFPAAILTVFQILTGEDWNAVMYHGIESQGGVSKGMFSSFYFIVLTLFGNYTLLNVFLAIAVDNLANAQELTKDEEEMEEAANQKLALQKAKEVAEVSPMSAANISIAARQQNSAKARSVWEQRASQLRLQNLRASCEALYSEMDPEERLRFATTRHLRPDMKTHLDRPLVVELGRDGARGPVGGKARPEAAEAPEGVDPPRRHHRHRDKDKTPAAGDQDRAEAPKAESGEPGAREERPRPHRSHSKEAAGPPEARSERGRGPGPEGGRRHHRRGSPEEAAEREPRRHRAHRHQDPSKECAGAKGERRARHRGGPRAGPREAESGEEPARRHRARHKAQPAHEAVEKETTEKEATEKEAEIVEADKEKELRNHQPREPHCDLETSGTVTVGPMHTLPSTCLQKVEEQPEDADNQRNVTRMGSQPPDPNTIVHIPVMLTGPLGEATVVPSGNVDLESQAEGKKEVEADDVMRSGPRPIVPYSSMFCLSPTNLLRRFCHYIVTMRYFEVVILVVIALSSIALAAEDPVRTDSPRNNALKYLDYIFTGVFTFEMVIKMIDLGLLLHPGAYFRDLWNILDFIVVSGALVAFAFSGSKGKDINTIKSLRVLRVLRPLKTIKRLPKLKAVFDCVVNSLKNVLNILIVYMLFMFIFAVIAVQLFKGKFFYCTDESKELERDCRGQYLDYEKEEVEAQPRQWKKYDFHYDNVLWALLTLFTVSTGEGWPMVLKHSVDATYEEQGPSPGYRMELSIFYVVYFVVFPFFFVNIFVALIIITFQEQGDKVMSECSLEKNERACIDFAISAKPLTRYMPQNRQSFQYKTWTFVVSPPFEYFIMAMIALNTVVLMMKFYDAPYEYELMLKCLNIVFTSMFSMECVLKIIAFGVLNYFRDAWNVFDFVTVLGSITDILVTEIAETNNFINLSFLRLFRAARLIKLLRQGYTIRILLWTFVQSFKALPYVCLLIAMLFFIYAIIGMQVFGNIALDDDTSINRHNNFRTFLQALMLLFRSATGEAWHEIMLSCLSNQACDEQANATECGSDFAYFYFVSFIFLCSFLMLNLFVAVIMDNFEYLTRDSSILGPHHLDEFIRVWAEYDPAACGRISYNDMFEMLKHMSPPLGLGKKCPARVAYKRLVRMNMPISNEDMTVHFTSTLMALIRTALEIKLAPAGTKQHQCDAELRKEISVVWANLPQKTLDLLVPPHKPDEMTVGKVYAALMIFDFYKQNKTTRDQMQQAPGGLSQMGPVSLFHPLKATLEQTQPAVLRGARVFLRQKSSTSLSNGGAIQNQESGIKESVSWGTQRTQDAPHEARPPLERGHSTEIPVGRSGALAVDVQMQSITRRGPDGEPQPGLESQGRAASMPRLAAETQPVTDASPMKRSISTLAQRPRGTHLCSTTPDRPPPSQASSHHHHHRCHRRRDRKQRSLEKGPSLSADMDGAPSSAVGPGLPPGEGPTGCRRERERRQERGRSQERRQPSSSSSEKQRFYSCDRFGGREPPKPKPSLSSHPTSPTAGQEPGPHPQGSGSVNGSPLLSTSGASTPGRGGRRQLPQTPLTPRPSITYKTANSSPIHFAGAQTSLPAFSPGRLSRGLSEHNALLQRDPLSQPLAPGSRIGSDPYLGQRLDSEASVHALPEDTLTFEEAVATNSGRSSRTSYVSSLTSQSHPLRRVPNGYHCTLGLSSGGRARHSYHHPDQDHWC
# T3 sequence (Q02410 whole entry): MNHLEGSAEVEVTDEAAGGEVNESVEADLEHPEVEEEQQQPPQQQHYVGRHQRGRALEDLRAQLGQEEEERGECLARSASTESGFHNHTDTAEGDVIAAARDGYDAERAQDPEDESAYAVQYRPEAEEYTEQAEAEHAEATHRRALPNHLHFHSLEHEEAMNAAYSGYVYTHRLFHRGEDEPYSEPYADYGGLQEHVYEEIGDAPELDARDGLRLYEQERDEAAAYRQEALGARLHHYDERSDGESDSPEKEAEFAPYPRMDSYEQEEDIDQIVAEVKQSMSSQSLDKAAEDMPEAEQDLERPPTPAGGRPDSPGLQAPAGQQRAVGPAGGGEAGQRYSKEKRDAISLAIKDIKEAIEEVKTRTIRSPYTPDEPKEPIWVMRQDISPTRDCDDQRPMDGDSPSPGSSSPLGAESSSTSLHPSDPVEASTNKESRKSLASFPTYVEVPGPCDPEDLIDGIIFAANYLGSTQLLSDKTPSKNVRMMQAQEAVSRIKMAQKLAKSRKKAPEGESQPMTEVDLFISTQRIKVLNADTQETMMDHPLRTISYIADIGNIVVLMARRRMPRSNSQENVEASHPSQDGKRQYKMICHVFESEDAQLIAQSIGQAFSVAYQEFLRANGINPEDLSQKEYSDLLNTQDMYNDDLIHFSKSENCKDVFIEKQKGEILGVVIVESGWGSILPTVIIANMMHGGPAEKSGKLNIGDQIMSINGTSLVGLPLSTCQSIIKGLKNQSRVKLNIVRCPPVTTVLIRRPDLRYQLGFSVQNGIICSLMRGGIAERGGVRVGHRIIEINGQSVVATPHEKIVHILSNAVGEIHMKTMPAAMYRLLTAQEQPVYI
# [13] = molecular target: T3, Voltage-gated N-type calcium channel alpha-1B subunit/Amyloid beta A4 precursor protein-binding family A member 1; format: protein assay; remark: listed apart in the source
# [14] = molecular target: Cytochrome P450 2C19 (Homo sapiens, UniProt P33261); assay: Cytochrome panel assay with activity outcomes. Panel member name: p450-cyp2c19 Compounds with AC50 equal or less than 10 uM are considered active; format: functional; details: read-out: AC50
# [15] = molecular target: Voltage-dependent T-type calcium channel subunit alpha-1H (Homo sapiens, UniProt O95180); format: functional;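 also: channel activity triggered by adding a high calcium stimulation buffer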
# [16] = system: INS1; assay: INS-1E survival protection against cytokine death – cell-based, luminescence, retest, dose response (AID 449756); format: functional; details: Rattus norvegicus;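 also: cell death triggered by IL-1 beta plus TNF-alpha plus IFN-gamma mixture; protective hits raise ATP signal compared with cytokine alone wells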
# [17] = molecular target: T4, Corticotropin-releasing factor receptor 2/Corticotropin-releasing factor-binding protein (Homo sapiens, UniProt P24387+Q13324); assay: activators of CRF receptor 2 with binding protein – uHTS hits, confirmation (AID 602473); format: functional; details: read-out: EC50_Mean
# T4 sequence (Q13324 whole entry): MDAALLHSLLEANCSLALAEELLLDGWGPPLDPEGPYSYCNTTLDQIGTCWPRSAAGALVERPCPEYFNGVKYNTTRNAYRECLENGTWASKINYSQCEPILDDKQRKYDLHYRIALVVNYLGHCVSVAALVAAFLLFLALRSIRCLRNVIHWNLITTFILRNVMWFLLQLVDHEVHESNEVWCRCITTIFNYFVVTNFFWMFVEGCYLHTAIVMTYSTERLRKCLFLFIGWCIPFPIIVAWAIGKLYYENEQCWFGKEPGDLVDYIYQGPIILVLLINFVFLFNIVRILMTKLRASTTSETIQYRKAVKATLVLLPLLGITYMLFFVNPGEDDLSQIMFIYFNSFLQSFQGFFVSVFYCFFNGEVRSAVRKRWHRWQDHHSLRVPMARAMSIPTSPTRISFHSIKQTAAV
# T4 sequence (P24387 whole entry): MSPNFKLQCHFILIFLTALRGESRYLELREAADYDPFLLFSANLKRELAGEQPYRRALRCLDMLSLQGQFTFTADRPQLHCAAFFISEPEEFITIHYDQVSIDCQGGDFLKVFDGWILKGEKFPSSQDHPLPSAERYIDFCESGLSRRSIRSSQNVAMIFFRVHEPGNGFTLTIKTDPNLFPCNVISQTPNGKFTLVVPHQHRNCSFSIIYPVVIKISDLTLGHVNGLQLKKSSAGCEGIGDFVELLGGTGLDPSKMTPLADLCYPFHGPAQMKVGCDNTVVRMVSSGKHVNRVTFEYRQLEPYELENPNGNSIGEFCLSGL
# [18] = system: Streptococcus sp. 'group A'; assay: Streptococcus pyogenes SK(-)GAS viability under kanamycin – luminescence, BacTiterGlo, confirmation, counter-screen for streptokinase expression inhibitor project, dose response (AID 1900); format: functional, organism-based
# [19] = molecular target: T5, Streptokinase A (Streptococcus pyogenes serotype M1, UniProt P10520); assay: viability-normalized secreted streptokinase activity reduction – plasminogen activation absorbance, OD405, dose response (AID 1914); format: functional, Streptococcus pyogenes M1 GAS;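 also: secreted streptokinase activity via plasminogen activation per viability signal from cell pellet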
# T5 sequence (P10520 whole entry): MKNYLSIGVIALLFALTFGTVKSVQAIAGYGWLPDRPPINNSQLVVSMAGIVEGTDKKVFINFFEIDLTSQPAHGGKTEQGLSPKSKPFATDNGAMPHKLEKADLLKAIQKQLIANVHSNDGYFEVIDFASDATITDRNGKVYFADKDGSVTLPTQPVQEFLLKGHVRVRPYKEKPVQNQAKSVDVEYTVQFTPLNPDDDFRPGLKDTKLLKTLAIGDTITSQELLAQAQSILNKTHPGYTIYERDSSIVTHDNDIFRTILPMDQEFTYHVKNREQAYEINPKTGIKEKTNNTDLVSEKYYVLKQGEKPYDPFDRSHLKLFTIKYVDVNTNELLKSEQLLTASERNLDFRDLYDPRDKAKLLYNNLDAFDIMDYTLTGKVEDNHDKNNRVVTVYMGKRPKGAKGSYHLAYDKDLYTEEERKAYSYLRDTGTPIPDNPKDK
# [20] = system: Streptococcus; assay: GAS UMAA2166 growth inhibition – luminescence, BacTiterGlo, counter-screen for streptokinase expression inhibitor project, dose response (AID 1915); format: functional, organism-based;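 also: potency for reduction of bacterial viability or growth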
# [21] = molecular target: T6, RNA-binding protein pos-1 (Caenorhabditis elegans, UniProt G5EF15); assay: disruptors of C. elegans POS-1 RNA interaction – biochemical, fluorescence polarization, dose response (AID 1964);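 also: purified POS-1 fused to maltose binding protein made in E. coli; potency of compounds blocking POS-1 binding to fluorescent RNA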
# T6 sequence (G5EF15 whole entry): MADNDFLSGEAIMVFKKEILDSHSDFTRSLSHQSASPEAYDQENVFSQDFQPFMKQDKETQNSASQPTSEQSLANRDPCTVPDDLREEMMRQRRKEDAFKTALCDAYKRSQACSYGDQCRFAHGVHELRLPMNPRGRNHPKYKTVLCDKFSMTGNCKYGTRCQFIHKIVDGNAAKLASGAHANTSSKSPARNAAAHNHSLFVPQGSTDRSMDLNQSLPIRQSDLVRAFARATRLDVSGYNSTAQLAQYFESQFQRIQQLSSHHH
# [22] = molecular target: T7, Zinc finger protein mex-5 (Caenorhabditis elegans, UniProt Q9XUB2); assay: potency of MEX-5 RNA-binding blockers – biochemical, C. elegans, fluorescence polarization, dose response (AID 1960)
# T7 sequence (Q9XUB2 whole entry): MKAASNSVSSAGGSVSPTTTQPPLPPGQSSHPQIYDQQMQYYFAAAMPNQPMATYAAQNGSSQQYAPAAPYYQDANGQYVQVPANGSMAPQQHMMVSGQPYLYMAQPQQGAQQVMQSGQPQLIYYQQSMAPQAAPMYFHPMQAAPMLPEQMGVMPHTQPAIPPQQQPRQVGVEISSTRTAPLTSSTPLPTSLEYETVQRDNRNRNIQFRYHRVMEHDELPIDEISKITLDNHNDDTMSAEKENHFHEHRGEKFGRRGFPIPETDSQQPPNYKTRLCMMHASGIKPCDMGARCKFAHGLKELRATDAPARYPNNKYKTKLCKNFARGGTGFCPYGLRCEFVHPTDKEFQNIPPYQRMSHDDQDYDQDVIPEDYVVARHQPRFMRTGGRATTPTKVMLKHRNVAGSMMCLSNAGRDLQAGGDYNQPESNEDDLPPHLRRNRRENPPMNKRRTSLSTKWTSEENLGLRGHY
# [23] = system: Vero; assay: cells; format: functional; details: Chlorocebus sabaeus
# [24] = viability of PTEN-deleted HCT116 cells – cell-based, HCT116 PTEN knockout, dose response (AID 1047); format: functional;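 also: HCT116 colon tumor cells with PTEN knocked out; cells exposed to compound for 60 hours before readout; potency for loss of cell viability measured by luminescence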
# Eukaryotic translation initiation factor 4E, sequence (P63073 whole entry): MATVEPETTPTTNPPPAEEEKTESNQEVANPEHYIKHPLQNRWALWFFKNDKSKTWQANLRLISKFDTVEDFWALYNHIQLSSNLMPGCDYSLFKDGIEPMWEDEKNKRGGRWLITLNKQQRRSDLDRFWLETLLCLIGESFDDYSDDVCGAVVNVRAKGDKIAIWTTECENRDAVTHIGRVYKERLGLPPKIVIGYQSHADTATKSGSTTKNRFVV
smiles,measurement,setting,value
CCN(CC)S(=O)(=O)c1ccc(NC(=O)c2cc(C(=O)OC)cc([N+](=O)[O-])c2)cc1,IC50,[1],> 64 µM (inactive)
OCC(Cc1ccccc1)NCc1ccccc1C(F)(F)F (stereo not drawn),EC50,[2],8.41 µM (active)
CC(C)NCC(O)COCCOc1ccc(C(C)(C)C)cc1 (stereo not drawn),EC50,[2],1.06 µM (active)
O=C(COC(=O)c1cc(-c2ccccc2Cl)nc2ccccc12)Nc1ncc(C(F)(F)F)cc1Cl,IC50,[3],39 µM (active)
CC(C(=O)N1CCCCC1)N1CCN(S(=O)(=O)c2ccc(Cl)cc2)CC1 (stereo not drawn),IC50,[3],54.9 µM (active)
CCOC(=O)/C=C/C(=O)Nc1ccc(S(=O)(=O)N(C)c2ccccc2)cc1,EC50,[4],4.41 µM (active)
same,IC50,[5],5.26 µM (active)
same,IC50,[6],16.3 µM (active)
same,EC50,[7],> 20 µM (inactive)
same,IC50,[8],4.98 µM (active)
same,IC50,[9],> 20 µM (inactive)
NC(c1csc(NC(=O)Nc2cccc(Cl)c2)n1)C1CCCCC1 (stereo not drawn),EC50,[10],> 89.2 µM (inactive)
COc1ccccc1N1CCN(c2ncnc3sc(C)c(-c4ccccc4)c23)CC1,EC50,[4],5.48 µM (active)
same,IC50,[5],6.68 µM (active)
same,IC50,[6],> 20 µM (inactive)
same,EC50,[7],11.5 µM (active)
same,IC50,[8],6.98 µM (active)
same,IC50,[9],17.2 µM (active)
COc1ccccc1OCCOc1ccc(/C=C2\C(=N)N3N=C(S(C)(=O)=O)SC3=NC2=O)cc1,CC50,[11],22.5 µM (active)
same,IC50,[3],3.6 µM (active)
COC(=O)c1ccccc1NC(=O)c1cc(-c2ccco2)on1,IC50,[12],13.7 µM (active)
same,IC50,[13],> 50 µM (inactive)
COc1ccc(NC2=NCC(=O)N2Cc2cccs2)cc1,IC50,[1],> 64 µM (inactive)
same,AC50,[14],8.91 µM (inconclusive)
CCC(=O)N1CCc2cc(S(=O)(=O)NCCN3CCCCC3CC)ccc21 (stereo not drawn),EC50,[2],2.66 µM (active)
CNC(=O)c1sc(N2N=C3/C(=C/c4ccccc4)CCCC3C2c2ccccc2)nc1C (stereo not drawn),EC50,[15],9.13 µM (active)
same,AC50,[16],6.72 µM (active)
same,EC50,[17],16.1 µM (active)
COc1ccc(/C=N/NC(=O)Cc2csc(Nc3cccc(C(F)(F)F)c3)n2)cc1C,EC50,[18],9.89 µM (active)
same,EC50,[19],10.4 µM (active)
same,EC50,[20],> 150 µM (not active)
same,EC50,[15],4.82 µM (active)
Cc1ccc(/N=C/c2nc(-c3ccc(C)cc3)oc2O)cc1,EC50,[21],32.6 µM (active)
same,EC50,[22],68.7 µM (active)
same,IC50,[1],50 µM (inactive)
O=C(COC(=O)c1cccc([N+](=O)[O-])c1)c1ccc2c(c1)OCO2,EC50,[2],0.0027 µM (active)
CC(=O)Nc1ccc(NC(=O)c2cc(-c3ccc(C)c(C)c3O)[nH]n2)cc1,IC50,[12],23.2 µM (active)
same,IC50,[13],> 50 µM (inactive)
Cc1ccc(C(=O)Cn2c(C(=O)/C=C/c3ccccc3)nc3ccccc32)cc1,CC50,[23],16.4 µM (active)
same,EC50,[10],> 89.2 µM (inactive)
O=C(O)c1cc(-c2ccccc2)n(-c2ccccc2C(=O)O)n1,IC50,[1],> 64 µM (inactive)
Cc1ccc(Cn2nc(C)c(NC(=O)CSc3nc4c(c(C(F)(F)F)n3)CCc3ccccc3-4)c2C)cc1,EC50,[24],21 µM (active)
same,IC50,[1],> 64 µM (inactive)
